Laboratory results: paper PMC9289672, “Optimization of Antibacterial Activity in Tibetan Swine α-Helix Peptide TP by Site-Directed Mutagenesis” (Frontiers in Microbiology, 2022)
Like-named read-outs stand apart in the source and are kept apart here. Where no end group is shown, it is not given here.

Legend:
[1] = system: hRBCs (human red blood cells); experiment: Hemolytic activity; conditions: three independent assays, two in parallel
Procedure: (§5) The cytotoxicity of each peptide was assessed with IPEC-J12 and HEK 293T cells. […] Each trial was conducted two times in parallel. A total of three independent assays were carried out.

[2] = system: all strains in Table 2; experiment: Geometric mean of MIC and therapeutic index; type: cell-based; conditions: MHC/GM; 128 μm used when 50% hemolysis not observed at 128 μm
Procedure: (§1) The bacteria were cultured overnight in the MHB medium and transferred to the new MHB the next day until the bacteria reached the exponential growth stage. The bacteria were diluted with MHB to 2 × 10^5 CFU/ml. About 50 μl of polypeptide and equal volume of bacterial suspension was added to a 96-well plate to give the final concentration of polypeptide between 1 and 128 μm. The last two columns are negative (MHB only) and positive (bacterial and MHB) controls and incubated at 37°C for 18–24 h. Optical density was measured at an absorbance wavelength of 492 nm using a microplate reader (Tecan GENios F129004, Tecan, Austria). At least three independent measurements were taken. Each trial was conducted two times in parallel. A total of three independent assays were carried out.
Trp is a hydrophobic amino acid with aromatic side chains. It is a special amino acid in peptide design. Previous studies have pointed out that introducing amino acids will also bring toxicity while improving activity. Therefore, at the beginning of the design, we predicted that selecting Trp as hydrophobic amino acid to substitute H-H position would bring certain toxicity to the peptide. Thus, as expected, the introduction of Trp increases the activity and toxicity of these peptides. […] Meanwhile, the virulence of TP(i+4) 1&2&5&6 and TP(i+4) 1&2&6&7 was lower than that of TP(i+4) 1&2&5&7. We infer that the location of hydrophobic centers can effectively reduce peptide toxicity by Trp substitution. For further evaluating the cell selectivity of the peptides, we also calculated the SI which defined as the ratio of MHC to the geometric mean (GM) (Dufourc, [2008]).

[3] = system: Pseudomonas aeruginosa ATCC 27853
Text: (§2) The bacteria strains Escherichia coli ATCC 25922, Escherichia coli UB1005, Salmonella typhimurium ATCC 14028, Salmonella typhimurium C7731, Pseudomonas aeruginosa ATCC 27853, Pseudomonas aeruginosa PAO1, Staphylococcus aureus ATCC 29213, Staphylococcus aureus ATCC 25923, Methicillin-resistant Staphylococcus aureus (MRSA) 43300, Enterococcus faecalis ATCC 29212, and Staphylococcus epidermidis ATCC 12228 were obtained from the College of Veterinary Medicine, Northeast Agricultural University (Harbin, China).
as §1

[4] = system: Staphylococcus epidermidis ATCC 12228
Text: as §2, §1

[5] = system: Staphylococcus aureus ATCC 25923
Text: as §2, §1

[6] = system: Salmonella typhimurium ATCC 14028
Text: as §2, §1

[7] = system: Escherichia coli ATCC 25922
Text: as §2, §1

[8] = system: Salmonella typhimurium C7731; conditions: MHB, bacteria diluted to 2 × 10^5 CFU/ml, peptide 1-128 μm, 37°C 18-24 h, OD 492 nm; three independent assays, two in parallel
Text: as §2, §1

[9] = system: Pseudomonas aeruginosa PAO1
Text: as §2, §1

[10] = system: Escherichia coli UB1005; conditions: MHB, bacteria diluted to 2 × 10^5 CFU/ml, peptide 1-128 μm, 37°C 18-24 h, OD 492 nm; three independent assays, two in parallel
Text: as §2, §1

[11] = system: Staphylococcus aureus ATCC 29213
Text: as §2, §1

[12] = system: Enterococcus faecalis ATCC 29212
Text: as §2, §1

[13] = system: Methicillin-resistant Staphylococcus aureus (MRSA) 43300; conditions: Methicillin-resistant 43300
Text: as §2, §1

[14] = system: Gram-positive bacteria; experiment: Geometric mean of MIC and therapeutic index; type: cell-based; conditions: MHC/GM; 128 μm used when 50% hemolysis not observed at 128 μm
Procedure: as §1
(§3) Trp is a hydrophobic amino acid with aromatic side chains. It is a special amino acid in peptide design. Previous studies have pointed out that introducing amino acids will also bring toxicity while improving activity. […] For further evaluating the cell selectivity of the peptides, we also calculated the SI which defined as the ratio of MHC to the geometric mean (GM) (Dufourc, [2008]).

[15] = system: Gram-negative bacteria; experiment: Geometric mean of MIC and therapeutic index; type: cell-based; conditions: MHC/GM; 128 μm used when 50% hemolysis not observed at 128 μm
Procedure: as §1, §3

[16] = system: S. aureus 29213; type: cell-based, Staphylococcus aureus; conditions: 29213, 4 h
Procedure: (§4) The salt and serum stability of polypeptides were determined by improved MIC method (Lv et al., [2014]). Peptides were incubated with BSA containing different final concentrations of salt ions (150 mM NaCl, 4.5 mM KCl, 6 μm NH4Cl, 8 μm ZnCl2, 1 mM MgCl2, 2 mM CaCl2, and 4 μm FeCl3) (Wang et al., [2018]). To determine the stability of the peptide in serum, peptide was incubated with different proportions of serum (50%, 100%) at 37°C for 4 h. The following steps are the same as those for antimicrobial activity. Each trial was conducted two times in parallel. A total of three independent assays were carried out.

[17] = system: hRBCs (human red blood cells)
Procedure: as §5

[18] = system: E. coli 25922; type: cell-based, Escherichia coli; conditions: 25922, 4 h
Procedure: as §4

[19] = system: IPEC-J2 and HEK 293T cells
Procedure: as §5

Substance	MHC (concentration of peptide that causes hemolysis of 50% of human red blood cells) [1]	Therapeutic index (TI) / selectivity index (SI), All [2]	MIC, P. aeruginosa 27853 [3]	MIC, S. epidermidis 12228 [4]	MIC, S. aureus 25923 [5]	MIC, S. typhimurium 14028 [6]	MIC, E. coli 25922 [7]	MIC, S. typhimurium 7731 [8]	MIC, P. aeruginosa PAO1 [9]	MIC, E. coli UB1005 [10]	MIC, S. aureus 29213 [11]	MIC, E. faecalis 29212 [12]	MIC, S. aureus 43300 [13]	Therapeutic index (TI), Gram-positive bacteria [14]	Therapeutic index (TI), Gram-negative bacteria [15]	other results
AKVVNKLTKGVAKLLK-NH2 [TP(i+4) 2&3]	>128 µM	1.41	128 µM	>128 µM	>128 µM	128 µM	32 µM	128 µM	128 µM	8 µM	>128 µM	>128 µM	>128 µM	1.00	2.00	
ASVVKKLTKGVAKLLK-NH2 [TP(i+4) 1&2]		3.56	16 µM	>128 µM	>128 µM	32 µM	4 µM	16 µM	8 µM	4 µM	>128 µM	>128 µM	>128 µM	1.00	12.70	MIC after incubation with 100% serum [16]: >64 µM; MIC in the presence of Ca2+ [16]: >64 µM; MIC in the presence of Fe3+ [16]: >64 µM; MIC in the presence of K+ [16]: >64 µM; MIC in the presence of Mg2+ [16]: >64 µM; MIC in the presence of NH4+ [16]: >64 µM; MIC in the presence of Na+ [16]: >64 µM; MIC in the presence of Zn2+ [16]: >64 µM; MIC, Control [16]: >64 µM; MHC (concentration of peptide that causes hemolysis of 50% of human red blood cells) [17]: >128 µM; MIC after incubation with 100% serum [18]: 32 µM; MIC in the presence of Ca2+ [18]: >64 µM; MIC in the presence of Fe3+ [18]: 8 µM; MIC in the presence of K+ [18]: 8 µM; MIC in the presence of Mg2+ [18]: 32 µM; MIC in the presence of NH4+ [18]: 8 µM; MIC in the presence of Na+ [18]: >64 µM; MIC in the presence of Zn2+ [18]: 2 µM; MIC, Control [18]: 4 µM
ASVVKKWTKGWAKLLK-NH2 [TP(i+4) 1&2&6]	>128 µM	3.89	32 µM	64 µM	128 µM	16 µM	4 µM	32 µM	8 µM	8 µM	64 µM	128 µM	64 µM	1.50	10.08	cell viability [19]: ~ 50%
ASVVKKWWKGWWKLLK-NH2 [TP(i+4) 1&2&5&6]	64.00 µM	13.30	4 µM	8 µM	16 µM	2 µM	1 µM	4 µM	4 µM	2 µM	8 µM	8 µM	8 µM	6.96	25.40	
ASVVKWLTKWVAKLLK-NH2 [TP(i+4) 1&2&7]	64.00 µM	16.19	4 µM	4 µM	4 µM	4 µM	4 µM	8 µM	4 µM	4 µM	2 µM	4 µM	4 µM	18.39	14.25	
ASVVKWLWKWVWKLLK-NH2 [TP(i+4) 1&2&5&7]	64.00 µM	2.76	>128 µM	8 µM	16 µM	32 µM	16 µM	>128 µM	>128 µM	16 µM	8 µM	8 µM	16 µM	6.06	1.26	
ASVVKWWTKWWAKLLK-NH2 [TP(i+4) 1&2&6&7]	64.00 µM	18.80	8 µM	2 µM	2 µM	4 µM	4 µM	8 µM	4 µM	4 µM	2 µM	2 µM	4 µM	27.83	12.70	
ASVVKWWWKWWWKLLK-NH2 [TP(i+4) 1&2&5&6&7]	8.00 µM	3.10	4 µM	2 µM	4 µM	2 µM	1 µM	4 µM	4 µM	2 µM	2 µM	2 µM	4 µM	3.03	3.17	
ASVVNKLTKKVAKLLK-NH2 [TP(i+4) 2&4]		2.83	32 µM	>128 µM	>128 µM	64 µM	8 µM	16 µM	8 µM	8 µM	>128 µM	>128 µM	>128 µM	1.00	8.00	MHC (concentration of peptide that causes hemolysis of 50% of human red blood cells) [17]: >128 µM
